Source: patent publication US10377753B2, “Substituted 4-azaindoles and their use as GluN2B receptor modulators” (Janssen Pharmaceutica NV, priority 2015, dated 2019)
Counter-ions that a name gives are not always drawn.

Biological target: cloned human NR1/NR2B ion channels (Homo sapiens (Human), UniProt Q05586+Q13224)
Assay: HNR2BC: effects of test articles on cloned human NR1/NR2B ion channels expressed in mammalian cells (FLIPR calcium flux)
Type: cell-based
Settings: cloned human NR1/NR2B, Table 5
Procedure, shortened: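 In a stable Tet-On-induced cell line expressing human GluN1/GluN2B, Calcium 5-loaded cells were preincubated 5 min with compound, then stimulated 5 min with glutamate at ~EC80 plus 10 μM glycine, in pH 7.4 HEPES buffer. FLIPR calcium fluorescence was normalized to control wells.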

cloned human NR1/NR2B ion channels, sequence (Q13224 27-1484, other chains not shown): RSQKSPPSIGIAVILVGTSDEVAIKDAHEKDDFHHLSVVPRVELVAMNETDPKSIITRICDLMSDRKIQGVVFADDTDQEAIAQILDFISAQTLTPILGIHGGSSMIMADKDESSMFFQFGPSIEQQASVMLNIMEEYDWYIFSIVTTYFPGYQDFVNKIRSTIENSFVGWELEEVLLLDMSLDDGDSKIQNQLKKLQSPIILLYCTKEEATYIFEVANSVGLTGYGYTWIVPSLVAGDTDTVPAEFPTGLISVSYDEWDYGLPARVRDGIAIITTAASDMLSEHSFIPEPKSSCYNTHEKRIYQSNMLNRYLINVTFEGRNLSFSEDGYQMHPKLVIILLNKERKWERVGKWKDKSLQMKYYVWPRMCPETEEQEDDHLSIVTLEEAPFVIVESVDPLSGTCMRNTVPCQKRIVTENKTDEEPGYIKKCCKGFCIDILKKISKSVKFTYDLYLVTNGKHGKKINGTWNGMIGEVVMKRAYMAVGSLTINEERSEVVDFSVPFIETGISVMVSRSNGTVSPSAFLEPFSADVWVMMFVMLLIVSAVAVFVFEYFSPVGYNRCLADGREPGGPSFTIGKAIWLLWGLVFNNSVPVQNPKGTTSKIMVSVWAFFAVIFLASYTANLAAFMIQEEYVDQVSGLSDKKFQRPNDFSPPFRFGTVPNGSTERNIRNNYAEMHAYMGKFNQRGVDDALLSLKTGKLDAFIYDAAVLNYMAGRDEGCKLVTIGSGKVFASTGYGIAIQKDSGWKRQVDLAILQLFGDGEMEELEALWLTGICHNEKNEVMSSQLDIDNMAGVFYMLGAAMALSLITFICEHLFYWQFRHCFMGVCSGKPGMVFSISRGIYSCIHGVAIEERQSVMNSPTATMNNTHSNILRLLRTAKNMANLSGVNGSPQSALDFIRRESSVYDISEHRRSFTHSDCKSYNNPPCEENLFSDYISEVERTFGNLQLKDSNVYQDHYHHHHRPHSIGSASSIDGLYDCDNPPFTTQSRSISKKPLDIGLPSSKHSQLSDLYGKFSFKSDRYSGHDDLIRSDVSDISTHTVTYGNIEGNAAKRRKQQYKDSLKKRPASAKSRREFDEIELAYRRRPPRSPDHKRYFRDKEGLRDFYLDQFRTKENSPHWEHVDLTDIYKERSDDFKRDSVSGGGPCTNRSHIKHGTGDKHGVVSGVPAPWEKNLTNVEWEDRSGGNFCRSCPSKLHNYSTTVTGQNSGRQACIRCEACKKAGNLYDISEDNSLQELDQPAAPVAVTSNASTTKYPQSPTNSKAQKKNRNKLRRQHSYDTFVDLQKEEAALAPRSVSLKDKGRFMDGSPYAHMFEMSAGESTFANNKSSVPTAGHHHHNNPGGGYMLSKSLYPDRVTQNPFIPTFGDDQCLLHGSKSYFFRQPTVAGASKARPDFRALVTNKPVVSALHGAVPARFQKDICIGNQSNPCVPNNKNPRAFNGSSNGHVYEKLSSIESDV

| Structure (SMILES) | IC50 | pIC50 |
| --- | --- | --- |
| O=C(Cn1cc(F)c2ncc(-c3ccc(F)cc3)cc21)N1CC(F)C1 [Example 308, 1-(3-Fluoroazetidin-1-yl)-2-[3-fluoro-6-(4-fluorophenyl)pyrrolo[3,2-b]pyridin-1-yl]ethanone] | 0.0631 µM | – |
| Cc1csc(-c2cnc3c(F)cn(CC(=O)N4CC(F)C4)c3c2)c1 [Example 309, 1-(3-Fluoroazetidin-1-yl)-2-[3-fluoro-6-(4-methyl-2-thienyl)pyrrolo[3,2-b]pyridin-1-yl]ethanone] | 0.2 µM | – |
| O=C(Cn1cc(F)c2ncc(-c3cccc(C(F)F)c3)cc21)N1CC(F)C1 [Example 310, 2-[6-[3-(Difluoromethyl)phenyl]-3-fluoro-pyrrolo[3,2-b]pyridin-1-yl]-1-(3-fluoroazetidin-1-yl)ethanone] | 0.0501 µM | – |
| O=C(Cn1cc(F)c2ncc(-c3ccc(F)c(F)c3)cc21)N1CC(F)C1 [Example 311, 2-[6-(3,4-Difluorophenyl)-3-fluoro-pyrrolo[3,2-b]pyridin-1-yl]-1-(3-fluoroazetidin-1-yl)ethanone] | 0.0631 µM | – |
| O=C(Cn1cc(Cl)c2ncc(-c3ccc(F)c(F)c3F)cc21)N1CCC1 [Example 312, 1-(Azetidin-1-yl)-2-[3-chloro-6-(2,3,4-trifluorophenyl)pyrrolo[3,2-b]pyridin-1-yl]ethanone] | 0.158 µM | – |
| Cc1cc(-c2cnc3c(F)cn(CC(=O)N4CCCC4)c3c2)ccc1F [Example 313, 2-[3-Fluoro-6-(4-fluoro-3-methyl-phenyl)pyrrolo[3,2-b]pyridin-1-yl]-1-pyrrolidin-1-yl-ethanone] | 0.02 µM | – |
| O=C(Cn1cc(F)c2ncc(-c3ccc(F)cc3)cc21)N1CCCC1 [Example 314, 2-[3-Fluoro-6-(4-fluorophenyl)pyrrolo[3,2-b]pyridin-1-yl]-1-pyrrolidin-1-yl-ethanone] | 0.0631 µM | – |
| O=C(Cn1cc(F)c2ncc(-c3cc(F)c(F)c(F)c3)cc21)N1CCCC1 [Example 315, 2-[3-Fluoro-6-(3,4,5-trifluorophenyl)pyrrolo[3,2-b]pyridin-1-yl]-1-pyrrolidin-1-yl-ethanone] | 0.0794 µM | – |
| Cc1cc(-c2cnc3c(F)cn(CC(=O)C4CC4)c3c2)ccc1F [Example 316, 1-Cyclopropyl-2-[3-fluoro-6-(4-fluoro-3-methyl-phenyl)pyrrolo[3,2-b]pyridin-1-yl]ethanone] | 0.0398 µM | – |
| Cc1csc(-c2cnc3c(F)cn(CC(=O)C4CC4)c3c2)c1 [Example 317, 1-Cyclopropyl-2-[3-fluoro-6-(4-methyl-2-thienyl)pyrrolo[3,2-b]pyridin-1-yl]ethanone] | 0.0398 µM | – |
| O=C(Cn1cc(F)c2ncc(-c3ccc(Cl)s3)cc21)C1CC1 [Example 318, 2-[6-(5-Chloro-2-thienyl)-3-fluoro-pyrrolo[3,2-b]pyridin-1-yl]-1-cyclopropyl-ethanone] | 0.02 µM | – |
| O=C(Cn1cc(F)c2ncc(-c3ccc(F)cc3)cc21)C1CC1 [Example 319, 1-Cyclopropyl-2-[3-fluoro-6-(4-fluorophenyl)pyrrolo[3,2-b]pyridin-1-yl]ethanone] | 0.02 µM | – |
| O=C(Cn1cc(F)c2ncc(-c3cc(F)c(F)c(F)c3)cc21)C1CC1 [Example 320, 1-Cyclopropyl-2-[3-fluoro-6-(3,4,5-trifluorophenyl)pyrrolo[3,2-b]pyridin-1-yl]ethanone] | 0.0316 µM | – |
| O=C(Cn1cc(F)c2ncc(-c3cccc(C(F)F)c3)cc21)C1CC1 [Example 321, 1-Cyclopropyl-2-[6-[3-(difluoromethyl)phenyl]-3-fluoro-pyrrolo[3,2-b]pyridin-1-yl]ethanone] | 0.02 µM | – |
| Cc1csc(-c2cnc3c(F)cn(CC(=O)N4CCC4)c3c2)c1 [Example 322, 1-(Azetidin-1-yl)-2-[3-fluoro-6-(4-methyl-2-thienyl)pyrrolo[3,2-b]pyridin-1-yl]ethanone] | 0.02 µM | – |
| O=C(Cn1cc(F)c2ncc(-c3cccc(C(F)F)c3)cc21)N1CCC1 [Example 323, 1-(Azetidin-1-yl)-2-[6-[3-(difluoromethyl)phenyl]-3-fluoro-pyrrolo[3,2-b]pyridin-1-yl]ethanone] | 0.1 µM | – |
| Cc1cc(-c2cnc3c(F)cn(CC(=O)C(C)C)c3c2)ccc1F [Example 324, 1-[3-Fluoro-6-(4-fluoro-3-methyl-phenyl)pyrrolo[3,2-b]pyridin-1-yl]-3-methyl-butan-2-one] | 0.1 µM | – |
| CCc1cccc(-c2cnc3c(F)cn(CC(=O)C(C)C)c3c2)c1 [Example 325, 1-[6-(3-Ethylphenyl)-3-fluoro-pyrrolo[3,2-b]pyridin-1-yl]-3-methyl-butan-2-one] | 0.2 µM | – |
| CC(C)C(=O)Cn1cc(F)c2ncc(-c3ccc(F)c(F)c3)cc21 [Example 326, 1-[6-(3,4-Difluorophenyl)-3-fluoro-pyrrolo[3,2-b]pyridin-1-yl]-3-methyl-butan-2-one] | 0.2 µM | – |
| CC(C)C(=O)Cn1cc(F)c2ncc(-c3cccc(F)c3)cc21 [Example 327, 1-[3-Fluoro-6-(3-fluorophenyl)pyrrolo[3,2-b]pyridin-1-yl]-3-methyl-butan-2-one] | 0.0631 µM | – |
| CC(C)C(=O)Cn1cc(F)c2ncc(-c3cccc(C(F)(F)F)c3)cc21 [Example 328, 1-[3-Fluoro-6-[3-(trifluoromethyl)phenyl]pyrrolo[3,2-b]pyridin-1-yl]-3-methyl-butan-2-one] | 0.0631 µM | – |
| Cc1cccc(-c2cnc3c(F)cn(CC(=O)C(C)C)c3c2)c1 [Example 329, 1-[3-Fluoro-6-(m-tolyl)pyrrolo[3,2-b]pyridin-1-yl]-3-methyl-butan-2-one] | 0.501 µM | – |
| CSCn1ccc2ncc(-c3ccc(F)c(C)c3)cc21 [Example 330, 6-(4-Fluoro-3-methyl-phenyl)-1-(methylsulfanylmethyl)pyrrolo[3,2-b]pyridine] | 0.0631 µM | – |
| Cc1cc(-c2cnc3ccn(CS(C)(=O)=O)c3c2)ccc1F [Example 332, 6-(4-Fluoro-3-methyl-phenyl)-1-(methylsulfonylmethyl)pyrrolo[3,2-b]pyridine] | 1.58 µM | – |
| CCC(=O)Cn1cc(F)c2ncc(-c3ccc(F)cc3)cc21 [Example 333, 1-[3-Fluoro-6-(4-fluorophenyl)pyrrolo[3,2-b]pyridin-1-yl]butan-2-one] | 6.31 µM | – |
| CCC(=O)Cn1cc(F)c2ncc(-c3cc(F)c(F)c(F)c3)cc21 [Example 334, 1-[3-Fluoro-6-(3,4,5-trifluorophenyl)pyrrolo[3,2-b]pyridin-1-yl]butan-2-one] | 0.0251 µM | – |
| CCC(=O)Cn1cc(F)c2ncc(-c3ccc(F)c(C)c3)cc21 [Example 335, 1-[3-Fluoro-6-(4-fluoro-3-methyl-phenyl)pyrrolo[3,2-b]pyridin-1-yl]butan-2-one] | 0.0126 µM | – |

Continued, values first:

| IC50 | pIC50 | Structure (SMILES) |
| --- | --- | --- |
| 0.02 µM | – | CCC(=O)Cn1cc(F)c2ncc(-c3ccc(F)c(F)c3)cc21 [Example 336, 1-[6-(3,4-Difluorophenyl)-3-fluoro-pyrrolo[3,2-b]pyridin-1-yl]butan-2-one] |
| 0.0158 µM | – | CCC(=O)Cn1cc(F)c2ncc(-c3cccc(C(F)F)c3)cc21 [Example 337, 1-[6-[3-(Difluoromethyl)phenyl]-3-fluoro-pyrrolo[3,2-b]pyridin-1-yl]butan-2-one] |
| 0.0158 µM | – | CCC(=O)Cn1cc(F)c2ncc(-c3ccc(Cl)s3)cc21 [Example 338, 1-[6-(5-Chloro-2-thienyl)-3-fluoro-pyrrolo[3,2-b]pyridin-1-yl]butan-2-one] |
| 0.0126 µM | – | CCC(=O)Cn1cc(F)c2ncc(-c3cc(C)cs3)cc21 [Example 339, 1-[3-Fluoro-6-(4-methyl-2-thienyl)pyrrolo[3,2-b]pyridin-1-yl]butan-2-one] |
| – | 7.9 | CC(=O)CCn1ccc2ncc(-c3ccc(F)cc3)cc21 [Example 340, 4-[6-(4-Fluorophenyl)pyrrolo[3,2-b]pyridin-1-yl]butan-2-one] |
| 1 µM | – | CC(C)C(=O)Cn1cc(F)c2ncc(-c3ccc(F)cc3)cc21 [Example 341, 1-[3-Fluoro-6-(4-fluorophenyl)pyrrolo[3,2-b]pyridin-1-yl]-3-methyl-butan-2-one] |
| 0.0501 µM | – | CC(C)C(=O)Cn1cc(F)c2ncc(-c3cccc(C(F)F)c3)cc21 [Example 342, 1-[6-[3-(Difluoromethyl)phenyl]-3-fluoro-pyrrolo[3,2-b]pyridin-1-yl]-3-methyl-butan-2-one] |
| 0.0631 µM | – | Cc1csc(-c2cnc3c(F)cn(CC(=O)C(C)C)c3c2)c1 [Example 343, 1-[3-Fluoro-6-(4-methyl-2-thienyl)pyrrolo[3,2-b]pyridin-1-yl]-3-methyl-butan-2-one] |
| 0.0501 µM | – | CC(C)C(=O)Cn1cc(F)c2ncc(-c3cc(F)c(F)c(F)c3)cc21 [Example 344, 1-[3-Fluoro-6-(3,4,5-trifluorophenyl)pyrrolo[3,2-b]pyridin-1-yl]-3-methyl-butan-2-one] |
| 0.0316 µM | – | CC(C)C(=O)Cn1cc(F)c2ncc(-c3ccc(Cl)s3)cc21 [Example 345, 1-[6-(5-Chloro-2-thienyl)-3-fluoro-pyrrolo[3,2-b]pyridin-1-yl]-3-methyl-butan-2-one] |
| 0.0398 µM | – | Cc1cc(-c2cnc3ccn(CC(=O)N4CCOCC4)c3c2)ccc1F [Example 346, 2-[6-(4-Fluoro-3-methyl-phenyl)pyrrolo[3,2-b]pyridin-1-yl]-1-morpholino-ethanone] |
| 0.0316 µM | – | Cc1cc(-c2cnc3ccn(CC(=O)NC4CC4)c3c2)ccc1F [Example 348, N-Cyclopropyl-2-[6-(4-fluoro-3-methyl-phenyl)pyrrolo[3,2-b]pyridin-1-yl]acetamide] |
| 0.0158 µM | – | O=C(Cn1ccc2ncc(-c3cc(F)cc(F)c3)cc21)NC1CC1 [Example 350, N-Cyclopropyl-2-[6-(3,5-difluorophenyl)pyrrolo[3,2-b]pyridin-1-yl]acetamide trifluoroacetate salt] |
| 0.0398 µM | – | O=C(Cn1ccc2ncc(-c3cccc(C(F)(F)F)c3F)cc21)NC1CC1 [Example 352, N-Cyclopropyl-2-[6-[2-fluoro-3-(trifluoromethyl)phenyl]pyrrolo[3,2-b]pyridin-1-yl]acetamide trifluoroacetate salt] |
| 0.0316 µM | – | O=C(Cn1ccc2ncc(-c3ccc(F)cc3)cc21)N1CCC1 [Example 353, 1-(Azetidin-1-yl)-2-[6-(4-fluorophenyl)pyrrolo[3,2-b]pyridin-1-yl]ethanone] |
